Assay results reported in EPA's ToxRefDB 2.

What was measured:
[1] = tested on: rat; conditions: Subchronic oral toxicity in rodents, fischer, Feed, dose end: 13 week, group: systemic, systemic / in life observation / body weight / body weight gain + systemic / in life observation / food consumption / food consumption + …
[2] = tested on: rat; conditions: Prenatal developmental toxicity study, sprague dawley, Oral, Gavage/Intubation, dose end: 15 GD
[3] = tested on: rat; conditions: Subchronic oral toxicity in rodents, fischer, Feed, dose end: 13 week, group: systemic, systemic / clinical chemistry / alanine aminotransferase (alt/sgpt) / alanine aminotransferase (alt/sgpt) + systemic / clinical chemistry / …
[4] = tested on: rat; conditions: Prenatal developmental toxicity study, sprague dawley, Oral, Gavage/Intubation, dose end: 15 GD; remark: listed apart in the source
[5] = tested on: rat; conditions: Subchronic oral toxicity in rodents, fischer, Gavage/Intubation, dose end: 13 week, group: systemic
[6] = tested on: mouse; conditions: Subchronic oral toxicity in rodents, b6c3f1, Gavage/Intubation, dose end: 13 week, group: systemic
[7] = tested on: rat; conditions: Chronic toxicity, fischer, Oral, Gavage/Intubation, dose end: 2 year, group: systemic
[8] = tested on: mouse; conditions: Chronic toxicity; b6c3f1; Oral; Gavage/Intubation; dose end: 2 year; group: systemic; systemic / pathology microscopic / kidney / necrosis + systemic / pathology microscopic / kidney / regeneration + systemic / pathology …
[9] = tested on: rat; conditions: Subchronic dermal toxicity, sprague dawley, Topical, dose end: 91 day, group: systemic, systemic / in life observation / clinical signs / skin ulceration
[10] = tested on: rat; conditions: Sub-acute dermal toxicity, sprague dawley, Topical, dose end: 2 week, group: systemic, systemic / in life observation / body weight / body weight gain + systemic / in life observation / food consumption / food consumption
[11] = group: developmental, developmental / developmental malformation / bone / absent + developmental / developmental malformation / bone / bent + developmental / …
[12] = group: maternal, systemic / in life observation / body weight / body weight gain
[13] = group: developmental, developmental / developmental malformation / bone / exencephaly + developmental / developmental malformation / bone / thread-like + …
[14] = group: maternal, systemic / in life observation / body weight / body weight gain + systemic / in life observation / food consumption / food consumption
[15] = systemic / pathology microscopic / intestine small / pigmentation + systemic / pathology microscopic / stomach / acanthosis + systemic / …
[16] = systemic / organ weight / kidney / absolute + systemic / organ weight / kidney / relative to body weight + systemic / organ weight / liver…
[17] = systemic / in life observation / body weight / body weight + systemic / pathology microscopic / kidney / hyperplasia + systemic / pathology …
[18] = systemic / pathology microscopic / intestine small / pigmentation + systemic / pathology microscopic / kidney / hemosiderosis + systemic / …

CC(C)[NH3+].O=C([O-])COc1ccc(Cl)cc1Cl [2,4-D, isopropylamine salt]
LEL [1]: 127 mg/kg/day
LOAEL [1]: 127 mg/kg/day
NEL [1]: 19 mg/kg/day
NOAEL [1]: 19 mg/kg/day
LEL [2, 11]: 100 mg/kg/day
LOAEL [2, 11]: 100 mg/kg/day
NEL [2, 11]: 32.5 mg/kg/day
NOAEL [2, 11]: 32.5 mg/kg/day
LEL [2, 12]: 32.5 mg/kg/day
LOAEL [2, 12]: 32.5 mg/kg/day
NEL [2, 12]: < 32.5 mg/kg/day
NOAEL [2, 12]: < 32.5 mg/kg/day
LEL [3]: 187 mg/kg/day
LOAEL [3]: 187 mg/kg/day
NEL [3]: 28 mg/kg/day
NOAEL [3]: 28 mg/kg/day
LEL [4, 13]: 190 mg/kg/day
LOAEL [4, 13]: 190 mg/kg/day
NEL [4, 13]: 65 mg/kg/day
NOAEL [4, 13]: 65 mg/kg/day
LEL [4, 14]: 190 mg/kg/day
LOAEL [4, 14]: 190 mg/kg/day
NEL [4, 14]: 65 mg/kg/day
NOAEL [4, 14]: 65 mg/kg/day

Cl.Cl.Nc1ccc(O)c(N)c1 [2,4-Diaminophenol dihydrochloride]
LOAEL ([5]; systemic / organ weight / kidney / relative to body weight + systemic / pathology microscopic / kidney / necrosis): 25 mg/kg/day
NOAEL ([5]; systemic / organ weight / kidney / relative to body weight + systemic / pathology microscopic / kidney / necrosis + systemic / in life …): 12 mg/kg/day
LEL [5, 15]: 12 mg/kg/day
NEL [5, 15]: < 12 mg/kg/day
LEL [6, 16]: 5 mg/kg/day
NEL [6, 16]: < 5 mg/kg/day
NOAEL [6, 16]: 19 mg/kg/day
LOAEL ([6]; systemic / pathology microscopic / kidney / regeneration): 38 mg/kg/day
LOAEL [7, 17]: 25 mg/kg/day
NOAEL [7, 17]: 12.5 mg/kg/day
LEL [7, 18]: 12.5 mg/kg/day
NEL [7, 18]: < 12.5 mg/kg/day
LEL [8]: 19 mg/kg/day
LOAEL [8]: 19 mg/kg/day
NEL [8]: < 19 mg/kg/day
NOAEL [8]: < 19 mg/kg/day

CC(O)CSS(C)(=O)=O (stereo not drawn) [2-Hydroxypropyl methanethiosulfonate]
LEL [9]: 10 mg/kg/day
LOAEL [9]: 10 mg/kg/day
NEL [9]: < 10 mg/kg/day
NOAEL [9]: < 10 mg/kg/day
LEL [10]: 100 mg/kg/day
LOAEL [10]: 100 mg/kg/day
NEL [10]: < 100 mg/kg/day
NOAEL [10]: < 100 mg/kg/day
